Results on 46 molecules are retold here after patent publication US7868005B2, “Pyrazinyl substituted piperazine-piperidines with CXCR3 antagonist activity” (Schering Corporation, priority 2005, dated 2011).

The first experiment concerns the target T1, human CXCR3 (N-delta 4) (Homo sapiens, UniProt P49682).
T1 construct: CD8 leader (N); Flag; expressed in transfected cells; membranes prepared
T1 sequence (P49682 5-368 limits assumed): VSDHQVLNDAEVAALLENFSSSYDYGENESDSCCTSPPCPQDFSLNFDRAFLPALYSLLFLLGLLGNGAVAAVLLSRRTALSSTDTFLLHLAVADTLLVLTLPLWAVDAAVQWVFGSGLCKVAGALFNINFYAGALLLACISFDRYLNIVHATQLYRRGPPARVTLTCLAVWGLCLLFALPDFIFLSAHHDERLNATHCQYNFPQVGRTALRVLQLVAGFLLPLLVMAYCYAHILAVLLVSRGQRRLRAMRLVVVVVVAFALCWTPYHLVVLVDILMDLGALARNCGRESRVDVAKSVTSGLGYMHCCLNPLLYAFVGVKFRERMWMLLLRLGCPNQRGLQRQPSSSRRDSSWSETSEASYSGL
Description: Human CXCR3 (N-delta 4) Scintillation Proximity Assay (SPA), [125I] IP-10 binding to Ba/F3-hCXCR3 membranes. The note with it: IC50 rating, Table 1; read-out: IC50. From the text: The inventive compounds can readily be evaluated to determine activity at the CXCR3 receptors by known methods, such as, for example, development of a human CXCR3 (N-delta 4) Binding Assay.
Cloning and Expression of Human CXCR3 (N-delta 4):
The DNA encoding human CXCR3 was cloned by PCR using human genomic DNA (Promega, Madison, Wis.) as a template. The PCR primers were designed based on the published sequence of human orphan receptor GPR9 (1) with incorporated restriction sites, a Kozak consensus sequence, CD8 leader and Flag tag. The PCR product was subcloned into the mammalian expression vector pME18Sneo, a derivative of the SR-alpha expression vector (designated as pME18Sneo-hCXCR3 (N-delta 4).
IL-3-dependent mouse pro-B cells Ba/F3 were transfected by electroporation in 0.4 ml Dulbecco's PBS containing 4×10^6 cells with 20 μg of pME18Sneo-hCXCR3 (N-delta 4) plasmid DNA. Cells were pulsed at 400 Volts, 100 OHMs, 960 μFd. The transfected cells were under selection with 1 mg/ml G418 (Life Technologies, Gaithersburg, Md.). G418-resistant Ba/F3 clones were screened for CXCR3 expression by specific binding of [^125I] IP-10 (NEN Life Science Products, Boston, Mass.).
Preparation of Ba/F3-hCXCR3 (N-delta 4) Membranes:
Ba/F3 cells expressing human CXCR3 (N-delta 4) were pelleted and resuspended in the lysis buffer containing 10 mM HEPES, pH 7.5 and Complete® protease inhibitors (1 tablet per 100 ml) (Boehringer Mannheim, Indianapolis, Ind.) at a cell density of 20×10^6 cells per ml. After 5 minute incubation on ice, cells were transferred to 4639 cell disruption bomb (Parr Instrument, Moline, Ill.) and applied with 1,500 psi of nitrogen for 30 minutes on ice. Large cellular debris was removed by centrifugation at 1,000×g. Cell membrane in the supernatant was sedimented at 100,000×g. The membrane was resuspended in the lysis buffer supplemented with 10% sucrose and stored at −80° C. Total protein concentration of the membrane was determined by BCA method from Pierce (Rockford, Ill.).
Human CXCR3 (N-delta 4) Scintillation Proximity Assay (SPA):
For each assay point, 2 μg of membrane was preincubated for 1 hr with 300 μg wheat germ agglutinin (WGA) coated SPA beads (Amersham, Arlington Heights, Ill.) in the binding buffer (50 mM HEPES, 1 mM CaCl2, 5 mM MgCl2, 125 mM NaCl, 0.002% NaN3, 1.0% BSA) at room temperature. The beads were spun down, washed once, resuspended in the binding buffer and transferred to a 96-well Isoplate (Wallac, Gaithersburg, Md.). 25 pM of [^125I] IP-10 with tested compounds in a series of titration were added to start the reaction. After 3 hr reaction at room temperature, the amount of [^125I] IP-10 bound to the SPA beads was determined with a Wallac 1450 Microbeta counter.
The Ki ratings for the various compounds of the present invention are given in the afore-mentioned Table 1. From these ratings and value ranges, it would be apparent to the skilled artisan that the compounds of the invention have excellent utility as CXCR3 receptor antagonists.
For `CC[C@H]1CN(c2nc(N)c(C(N)=O)nc2Cl)CCN1C1CCN(Cc2ccc(Cl)cc2)CC1` [compound 1], the 50% inhibitory concentration (IC50) is under 25 nM. On the same count and under the same terms, under `CC[C@H]1CN(c2nc(N)c(C(N)=O)nc2Cl)CCN1C1CCN(Cc2ccc(Cl)cc2C(=N)N)CC1` [compound 2] stands under 25 nM; under `CC[C@H]1CN(c2nc(N)c(C(N)=O)nc2Cl)CCN1C1CCN(C(CO)c2ccc(Cl)cc2)CC1` (stereo partly shown) [compound 3], under 25 nM; under `CC[C@H]1CN(c2nc(N)c(C(N)=O)nc2Cl)CCN1C1CCN(Cc2ccc(Cl)cc2CCO)CC1` [compound 4], under 25 nM. Same read-out and setting: under `CC[C@H]1CN(c2nc(N)c(C(N)=O)nc2Cl)CCN1C1CCN([C@@H](CO)c2ccc(Cl)cc2)CC1` [compound 5] stands under 25 nM. The same measure, in the same setting: under `CC[C@H]1CN(c2nc(N)c(C(N)=O)nc2Cl)CCN1C1CCN(Cc2ccc(Cl)cc2CCN)CC1` [compound 6] stands under 25 nM; under `CC[C@H]1CN(c2nc(N)c(C(N)=O)nc2Cl)CCN1C1CCN(Cc2ccc(Cl)cc2C(O)CO)CC1` (stereo partly shown) [compound 7], under 25 nM.

Consider `CC[C@H]1CN(c2nc(N)c(C(N)=O)nc2Cl)CCN1C1CCN(Cc2ccc(Cl)cc2C(N)=O)CC1` [compound 8], for which the IC50 is under 25 nM. For the molecule `CC[C@H]1CN(c2nc(N)c(C(N)=O)nc2Cl)CCN1C1CCN(Cc2ccc(OC(F)(F)F)cc2)CC1` [compound 9], the IC50 is under 25 nM. In the case of `CC[C@H]1CN(c2nc(N)c(C(N)=O)nc2Cl)CCN1C1CCN(Cc2ccc(Cl)cc2F)CC1` [compound 10], the 50% inhibitory concentration (IC50) is under 25 nM. For the molecule `CC[C@H]1CN(c2nc(N)c(C(N)=O)nc2Cl)CCN1C1CCN(Cc2ccc(Cl)cc2[C@H](O)C(N)=O)CC1` [compound 11], the concentration for half-maximal inhibition (IC50) is under 25 nM. As to `CC[C@H]1CN(c2nc(N)c(C(N)=O)nc2Cl)CCN1C1CCN(Cc2ccc(Cl)cc2[C@H](O)C(=O)NC)CC1` [compound 12], the IC50 is under 25 nM. Still for that read-out and setting: under `CC[C@H]1CN(c2nc(N)c(C(N)=O)nc2Cl)CCN1C1CCN(Cc2ccc(Cl)cc2CCNC(=O)OC(C)(C)C)CC1` [compound 13] stands under 25 nM; under `CC[C@H]1CN(c2nc(N)c(C(N)=O)nc2Cl)CCN1C1CCN(Cc2ccc(Cl)cc2C(C)CO)CC1` (stereo partly shown) [compound 14], under 25 nM; under `CC[C@H]1CN(c2nc(N)c(C(N)=O)nc2Cl)CCN1C1CCN(Cc2ccc(C(=O)OC)cc2)CC1` [compound 15], under 25 nM.

Regarding `CC[C@H]1CN(c2nc(N)c(C(N)=O)nc2Cl)CCN1C1CCN(Cc2ccc(C#N)cc2)CC1` [compound 16], the half-inhibitory concentration (IC50) was under 25 nM. Same read-out and setting: under `CC[C@H]1CN(c2nc(N)c(C(N)=O)nc2Cl)CCN1C1CCN(Cc2ccc(Cl)cc2CC(N)=O)CC1` [compound 17] stands under 25 nM; under `CC[C@H]1CN(c2nc(N)c(C(N)=O)nc2Cl)CCN1C1CCN(Cc2ccc(Cl)cc2C(O)C(=O)N(C)C)CC1` (stereo partly shown) [compound 18], under 25 nM; under `CC[C@H]1CN(c2nc(N)c(C(N)=O)nc2Cl)CCN1C1CCN(Cc2ccc(Cl)cc2C(C)(C)CO)CC1` [compound 19], under 25 nM. In the case of `CC[C@H]1CN(c2nc(N)c(C(N)=O)nc2Cl)CCN1C1CCN(Cc2ccc(Cl)cc2C#N)CC1` [compound 20], the IC50 was under 25 nM. Turning to `CC[C@H]1CN(c2nc(N)c(C(N)=O)nc2Cl)CCN1C1CCN(Cc2ccc(Cl)cc2CC(=O)NCC(C)O)CC1` (stereo partly shown) [compound 21], the half-maximal inhibitory concentration (IC50) is under 25 nM. On the same count and under the same terms, under `CC[C@H]1CN(c2nc(N)c(C(N)=O)nc2Cl)CCN1C1CCN(Cc2ccc(Cl)cc2CC(=O)NCC2CCCO2)CC1` (stereo partly shown) [compound 22] stands under 25 nM; under `CC[C@H]1CN(c2nc(N)c(C(N)=O)nc2Cl)CCN1C1CCN(Cc2ccc(Cl)cc2-c2nnn[nH]2)CC1` [compound 23], 25 to 100 nM; under `CC[C@H]1CN(c2nc(N)c(C(N)=O)nc2Cl)CCN1C1CCN(Cc2ccc(Cl)cc2C2COC(=O)O2)CC1` (stereo partly shown) [compound 24], 25 to 100 nM. The same measure, in the same setting: under `CC[C@H]1CN(c2nc(N)c(C(N)=O)nc2Cl)CCN1C1CCN(Cc2ccc(-n3cccn3)cc2)CC1` [compound 25] stands 25 to 100 nM; under `CC[C@H]1CN(c2nc(N)c(C(N)=O)nc2Cl)CCN1C1CCN(Cc2ccc(Cl)cc2C(=O)O)CC1` [compound 26], 25 to 100 nM. The same measure, in the same setting: under `CC[C@H]1CN(c2nc(N)c(C(N)=O)nc2Cl)CCN1C1CCN(Cc2ccc(Cl)cc2NC(=O)C(C)O)CC1` (stereo partly shown) [compound 27] stands 25 to 100 nM; under `CC[C@H]1CN(c2nc(N)c(C(N)=O)nc2Cl)CCN1C1CCN(Cc2ccc(Cl)cc2[C@@H](O)C(N)=O)CC1` [compound 28], 25 to 100 nM. Take `C[C@H]1CN(c2nc(N)c(C(N)=O)nc2Cl)CCN1C1CCN(Cc2ccc(Cl)cc2)CC1` [compound 29]: the concentration for half-maximal inhibition (IC50) is 25 to 100 nM. For `CC[C@H]1CN(c2nc(N)c(C(N)=O)nc2Cl)CCN1C1CCN(Cc2ccc(Cl)cc2CC(C)(C)O)CC1` [compound 30], the IC50 lay in the range of 25 to 100 nM.

Turning to `CC[C@H]1CN(c2nc(N)c(C(N)=O)nc2Cl)CCN1C1CCN(Cc2ccc(Cl)cc2C(=O)OC)CC1` [compound 31], the IC50 lay in the range of 25 to 100 nM. Same read-out and setting: in the case of `CC[C@H]1CN(c2nc(N)c(C(N)=O)nc2Cl)CCN1C1CCN(Cc2ccc(Cl)cc2CCNC=O)CC1` [compound 32] it was 25 to 100 nM; in that of `CC[C@H]1CN(c2nc(N)c(C(N)=O)nc2Cl)CCN1C1CCN(Cc2ccc(Cl)cc2CC#N)CC1` [compound 33], 25 to 100 nM; in that of `CC[C@H]1CN(c2nc(N)c(C(N)=O)nc2Cl)CCN1C1CCN(Cc2ccc(Cl)cc2CCNC(N)=O)CC1` [compound 34], 25 to 100 nM. Take `CC[C@H]1CN(c2nc(N)c(C(N)=O)nc2Cl)CCN1C1CCN(Cc2ccc(Cl)cc2CC(=O)NC)CC1` [compound 35]: the concentration for half-maximal inhibition (IC50) lay within 25 to 100 nM. On the same count and under the same terms, in the case of `CC[C@H]1CN(c2nc(N)c(C(N)=O)nc2Cl)CCN1C1CCN(Cc2ccc(Cl)cc2CCNS(C)(=O)=O)CC1` [compound 36] it was 25 to 100 nM; in that of `CC[C@H]1CN(c2nc(N)c(C(N)=O)nc2Cl)CCN1C1CCN(Cc2ccc(Cl)cc2CC(=O)O)CC1` [compound 37], 25 to 100 nM. On the same count and under the same terms, in the case of `CC[C@H]1CN(c2nc(N)c(C(N)=O)nc2Cl)CCN1C1CCN(Cc2ccc(Cl)cc2CC(=O)OC)CC1` [compound 38] it was 25 to 100 nM; in that of `CC[C@H]1CN(c2nc(N)c(C(N)=O)nc2Cl)CCN1C1CCN(Cc2ccc(Cl)cc2CCNC(=O)OC)CC1` [compound 39], 25 to 100 nM.

The same experiment, now with this note: human; read-out: human IC50.
As for `CC[C@H]1CN(c2nc(N)c(C(=O)NCCO)nc2Cl)CCN1C1CCN(Cc2ccc(Cl)cc2CO)CC1` [Formula 7], the half-inhibitory concentration (IC50) was under 1 nM. On the same count and under the same terms, in the case of `CC[C@H]1CN(c2nc(N)c(C(=O)NCCO)nc2Cl)CCN1C1CCN([C@@H](CO)c2ccc(Cl)cc2)CC1` [Formula 8] it was under 1 nM; in that of `CC[C@H]1CN(c2nc(N)c(C(=O)NC)nc2Cl)CCN1C1CCN(Cc2ccc(Cl)cc2)CC1` [Formula 9], under 1 nM; in that of `CC[C@H]1CN(c2ncc(C(=O)NC3CC3)nc2C)CCN1C1CCN(Cc2ccc(Cl)cc2)CC1` [Formula 10], under 1 nM.

As for `CC[C@H]1CN(c2ncc(C(=O)NC3CC3)nc2C)CCN1C1CCN(Cc2ccc(F)c(F)c2)CC1` [Formula 11], the IC50 is under 1 nM. Turning to `CC[C@H]1CN(c2ncc(C(=O)NC3CC3)nc2C)CCN1C1CCN([C@@H](CO)c2ccc(Cl)cc2)CC1` [Formula 12], the half-maximal inhibitory concentration (IC50) is under 1 nM. Consider `CC[C@H]1CN(c2ncc(C(N)=O)nc2C(F)(F)F)CCN1C1CCN(C(=O)c2ccc(Cl)cc2)CC1` [Formula 13], for which the half-inhibitory concentration (IC50) was under 1 nM.
